# According to PubChem BioAssay (NCI):
#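 How tested: cells in 96-well plates exposed to compound for 48 hours at five concentrations. Abbreviation: GI50, concentration required for 50% inhibition of growth. At the TGI there is no net growth.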
# Columns and labels:
# Experiment in all cases: NCI-60 cell line screen, 48 h
# ACHN renal = tested on: ACHN renal
# CCRF-CEM leukemia = tested on: CCRF-CEM leukemia
# HCT-116 colon = tested on: HCT-116 colon
# HL-60(TB) leukemia = tested on: HL-60(TB) leukemia
# M14 melanoma = tested on: M14 melanoma
# MDA-MB-435 = tested on: MDA-MB-435
# NCI-H522 lung = tested on: NCI-H522 lung
# OVCAR-8 ovarian = tested on: OVCAR-8 ovarian
# SF-268 CNS = tested on: SF-268 CNS
# SN12C renal = tested on: SN12C renal
Structure (SMILES),GI50 (ACHN renal),TGI (ACHN renal),GI50 (CCRF-CEM leukemia),TGI (CCRF-CEM leukemia),GI50 (HCT-116 colon),TGI (HCT-116 colon),GI50 (HL-60(TB) leukemia),TGI (HL-60(TB) leukemia),GI50 (M14 melanoma),TGI (M14 melanoma),GI50 (MDA-MB-435),TGI (MDA-MB-435),GI50 (NCI-H522 lung),TGI (NCI-H522 lung),GI50 (OVCAR-8 ovarian),TGI (OVCAR-8 ovarian),GI50 (SF-268 CNS),TGI (SF-268 CNS),GI50 (SN12C renal),TGI (SN12C renal)
CN(C)c1ccc(N=C(C#N)c2nc(N)nc(N3CCN(c4ccccc4)CC3)n2)cc1,22.3 µM,> 50 µM,> 50 µM,> 50 µM,17.4 µM,> 50 µM,> 50 µM,> 50 µM,> 50 µM,> 50 µM,> 43.9 µM,> 50 µM,> 50 µM,> 50 µM,18 µM,> 37.2 µM,11.7 µM,34.9 µM,> 50 µM,> 50 µM
CC(C)N(Cc1ccccc1)S(=O)(=O)c1n[nH]c(C(C)(C)C)n1,,> 100 µM,,> 100 µM,,> 100 µM,,> 100 µM,,> 100 µM,,> 100 µM,,> 100 µM,,> 100 µM,,> 100 µM,,> 100 µM
Cc1ccc(S(=O)(=O)c2ccsc2N)cc1,> 100 µM,> 100 µM,> 100 µM,> 100 µM,> 100 µM,> 100 µM,> 100 µM,> 100 µM,> 100 µM,> 100 µM,> 100 µM,> 100 µM,> 100 µM,> 100 µM,> 100 µM,> 100 µM,97.7 µM,> 100 µM,> 100 µM,> 100 µM
C[C@]12CC[C@H]3[C@@H](CCC4=C[C@@H](OC5OCC(OC6OC(CO)C(O)C(O)C6O)C(O)C5O)CC[C@@]43C=O)[C@@]1(O)CCC2C1=CC(=O)OC1 (stereo partly drawn),,2.25 µM,,> 100 µM,,1.25 µM,,0.646 µM,,2.79 µM,,3.71 µM,,2.88 µM,,2.76 µM,,1.64 µM,,2.01 µM
O=c1oc2cc(OS(=O)(=O)c3ccccc3)ccc2c2c1CCCCC2,> 100 µM,> 100 µM,4.56 µM,> 100 µM,3.62 µM,> 100 µM,2.05 µM,8.54 µM,8.8 µM,> 100 µM,9.44 µM,> 100 µM,6.44 µM,> 100 µM,86.1 µM,> 100 µM,> 100 µM,> 100 µM,7.24 µM,> 100 µM
N#C/C(=C\c1cccnc1)c1nc2ccccc2o1,> 100 µM,> 100 µM,,,> 100 µM,> 100 µM,> 100 µM,> 100 µM,> 100 µM,> 100 µM,> 100 µM,> 100 µM,> 100 µM,> 100 µM,> 100 µM,> 100 µM,> 100 µM,> 100 µM,> 100 µM,> 100 µM
O=C1NC(O)CCN1C1CC(O)C(CO)O1 (stereo not drawn),,> 100 µM,,> 100 µM,,> 100 µM,,> 100 µM,,> 100 µM,,> 100 µM,,> 100 µM,,> 100 µM,,> 100 µM,,> 100 µM
C[C@H]1CCC/C=C/[C@@H]2C[C@H](O)C[C@H]2[C@H](O)[C@@H](SC2OC(CO)C(O)C(O)C2O)CC(=O)O1 (stereo partly drawn),> 100 µM,> 100 µM,61.2 µM,> 100 µM,> 100 µM,> 100 µM,> 100 µM,> 100 µM,61.3 µM,> 100 µM,69.8 µM,> 100 µM,> 100 µM,> 100 µM,35 µM,> 100 µM,,,> 100 µM,> 100 µM
CC(C)=CCC/C(C)=C/[C@H]1OC(=O)CC12C[C@H](O)C=CC2=O (stereo partly drawn),,,0.171 µM,0.521 µM,0.323 µM,1.21 µM,0.323 µM,1.11 µM,0.32 µM,0.833 µM,0.458 µM,1.64 µM,1.19 µM,,0.791 µM,,0.922 µM,2.65 µM,0.529 µM,2 µM
C=Cc1cnc([N+](=O)[O-])n1C,,> 100 µM,,> 100 µM,,> 100 µM,,> 100 µM,,> 100 µM,,> 100 µM,,,,> 100 µM,,> 100 µM,,> 100 µM
CC(=O)NS(=O)(=O)c1ccc(-n2nc(-c3ccccc3)cc2C2=CC(=O)C=CC2=O)cc1,> 100 µM,> 100 µM,,,33.5 µM,> 100 µM,> 100 µM,> 100 µM,> 100 µM,> 100 µM,> 100 µM,> 100 µM,> 100 µM,> 100 µM,> 100 µM,> 100 µM,> 100 µM,> 100 µM,> 100 µM,> 100 µM
Cc1cc(O)c2c(c1)C(=O)C(c1c(C)cc3c(c1O)C(=O)C1OC1C3=O)=CC2=O (stereo not drawn),,2.36 µM,,,,3.21 µM,,0.0151 µM,,8.12 µM,,7.71 µM,,1.4 µM,,18.2 µM,,26.2 µM,,11.2 µM
